Key:
[1] = system: human embryonic stem cell derived neural stem cells (NSCs); test: Neural stem cell proliferation assay (neurogenesis assay, ATP levels by CellTiterGlo); format: cell-based; details: 96 h, concentration at which 150% activity of control (100%) is reached, NSC proliferation, ATP levels after 4 days incubation, dose response 8 μM to 8 nM
Experimental: Neural Stem Cell Proliferation Assay
Neurogenic properties of small molecules are determined based on the proliferation of human embryonic stem cell derived neural stem cells (NSCs) which were derived via a dual smad inhibition as previously described (Chambers, S. M., et al., Highly efficient neural conversion of human ES and iPS cells by dual inhibition of SMAD signaling, Nature biotechnology, 2009. 27(3): p. 275-80.)
Compounds respond is measured by the increase in cells based on ATP levels (Promega:CellTiterGlo®) after an incubation period of 4 days.
NSCs are thawed and expanded over 3 passages. On the 14th day, NSCs are seeded in Polyornithin/Laminin coated 384 well plates at a cell density of 21′000 cells/cm^2 in a media volume of 38 μl. 4 hours after cell seeding, compound solutions are added at a volume of 2 μl. Stock solutions of the compounds (water, 5% DMSO) are diluted to obtain a dose response (11 points, dilution factor is 2), ranging from 8 μM to 8 nM. Controls are run to consistently determine the neurogenic properties of the cells:
Negative (neutral) control is cell culture Media (final DMSO concentration: 0.25%).
1. cell culture Media+100 ng/ml FGF2 (final DMSO concentration: 0.1%)
2. cell culture Media+20 ng/ml EGF (final DMSO concentration: 0.1%)
3. cell culture Media+100 ng/ml Wnt3a (final DMSO concentration: 0.1%)
After 4 days incubation at 37° C., 5% CO2, the amount of ATP per well is quantified. The ATP concentration is proportional to the cell number. ATP is quantified by using the Promega CellTiterGlo® kit. The CellTiterGlo® reagents contain a cell lysis buffer, a thermo stable luciferase (UltraGlo™ recombinant luciferase), magnesium and luciferin. Luciferin reacts with ATP producing oxyluciferin, AMP and light. The luminescence signal is proportional to the ATP content.
The value of negative (neutral) control is determined for each assay plate by taking the average of 16 negative control wells. The neurogenic compound response is calculated for each compound as (compound/Negative Control)*100.
The values of EC150 from the dose response curve are determined for each test compound. The EC150 is the compound concentration at which 150% activity of control (100%) is reached.

Row | melting point | SMILES | EC (150% of control) [1]
1 | 189 °C | Cc1c2n(c3c(CC(C)C)cc(F)cc13)CCNC2=O [Example 3, 8-Fluoro-6-isobutyl-10-methyl-3,4-dihydro-2H-pyrazino[1,2-a]indol-1-one] | 0.009 µM
2 | 230 °C | Cc1c2n(c3ccc(F)cc13)CCNC2=O [Example 4, 8-Fluoro-10-methyl-3,4-dihydro-2H-pyrazino[1,2-a]indol-1-one] | 0.31 µM
3 | 208 °C | Cc1c2n(c3c(C)cc(F)cc13)CCNC2=O [Example 5, 8-Fluoro-6,10-dimethyl-3,4-dihydro-2H-pyrazino[1,2-a]indol-1-one] | 0.074 µM
4 | 251 °C | Cc1c2n(c3c(C)cc(Cl)cc13)CCNC2=O [Example 7, 8-Chloro-6,10-dimethyl-3,4-dihydro-2H-pyrazino[1,2-a]indol-1-one] | 0.11 µM
5 | 177 °C | CCc1cc(F)cc2c(C)c3n(c12)CCNC3=O [Example 8, 6-Ethyl-8-fluoro-10-methyl-3,4-dihydro-2H-pyrazino[1,2-a]indol-1-one] | 0.019 µM
6 | 191 °C | CCc1cc(Cl)cc2c(C)c3n(c12)CCNC3=O [Example 10, 8-Chloro-6-ethyl-10-methyl-3,4-dihydro-2H-pyrazino[1,2-a]indol-1-one] | 0.34 µM
7 | 172 °C | C=CCc1cc(F)cc2c(C)c3n(c12)CCNC3=O [Example 11, 6-Allyl-8-fluoro-10-methyl-3,4-dihydro-2H-pyrazino[1,2-a]indol-1-one] | 0.14 µM
8 | 161 °C | Cc1c2n(c3c(CCC(C)C)cc(F)cc13)CCNC2=O [Example 12, 8-Fluoro-10-methyl-6-(3-methyl-butyl)-3,4-dihydro-2H-pyrazino[1,2-a]indol-1-one] | 0.07 µM
9 | 194 °C | Cc1c2n(c3c(CCCC#N)cc(F)cc13)CCNC2=O [Example 13, 4-(8-Fluoro-10-methyl-1-oxo-1,2,3,4-tetrahydro-pyrazino[1,2-a]indol-6-yl)-butyronitrile] | 0.31 µM
10 | 199 °C | Cc1c2n(c3c(CC(C)C)cc(Cl)cc13)CCNC2=O [Example 14, 8-Chloro-6-isobutyl-10-methyl-3,4-dihydro-2H-pyrazino[1,2-a]indol-1-one] | 0.19 µM
11 | 178 °C | Cc1c2n(c3c(Cc4ccc(F)cc4)cc(F)cc13)CCNC2=O [Example 15, 8-Fluoro-6-(4-fluoro-benzyl)-10-methyl-3,4-dihydro-2H-pyrazino[1,2-a]indol-1-one] | 0.16 µM
12 | 259 °C | C#Cc1cc(F)cc2c(C)c3n(c12)CCNC3=O [Example 20, 6-Ethynyl-8-fluoro-10-methyl-3,4-dihydro-2H-pyrazino[1,2-a]indol-1-one] | 0.04 µM
13 | 239 °C | Cc1c2n(c3c(OCC(F)(F)F)cc(F)cc13)CCNC2=O [Example 24, 8-Fluoro-10-methyl-6-(2,2,2-trifluoroethoxy)-3,4-dihydro-2H-pyrazino[1,2-a]indol-1-one] | 0.17 µM
14 | 265 °C | Cc1c2n(c3c(C#N)cc(F)cc13)CCNC2=O [Example 29, 8-Fluoro-10-methyl-1-oxo-3,4-dihydro-2H-pyrazino[1,2-a]indole-6-carbonitrile] | 0.5 µM

More lines, now with the values behind:

Row | SMILES | melting point | EC (150% of control) [1]
15 | Cc1cc(F)cc2cc3n(c12)CCCNC3=O [Example 1, 9-Fluoro-7-methyl-2,3,4,5-tetrahydro-[1,4]diazepino[1,2-a]indol-1-one] | 198 °C | 0.21 µM
16 | Cc1cc(F)cc2cc3n(c12)CCNC3=O [Example 2, 8-Fluoro-6-methyl-3,4-dihydro-2H-pyrazino[1,2-a]indol-1-one] | 250.5 °C | 0.17 µM
17 | Cc1c2n(c3c(N4CCOCC4)cc(F)cc13)CCNC2=O [Example 6, 8-Fluoro-10-methyl-6-morpholin-4-yl-3,4-dihydro-2H-pyrazino[1,2-a]indol-1-one] | 226 °C | 0.21 µM
18 | Cc1c2n(c3c(N4CCS(=O)(=O)CC4)cc(F)cc13)CCNC2=O [Example 9, 6-(1,1-Dioxo-1λ^6-thiomorpholin-4-yl)-8-fluoro-10-methyl-3,4-dihydro-2H-pyrazino[1,2-a]indol-1-one] | 387 °C | 0.015 µM
19 | Cc1c2n(c3c(N4CC5(COC5)C4)cc(F)cc13)CCNC2=O [Example 16, 8-Fluoro-10-methyl-6-(2-oxa-6-aza-spiro[3.3]hept-6-yl)-3,4-dihydro-2H-pyrazino[1,2-a]indol-1-one] | 237 °C | 0.23 µM
20 | Cc1c2n(c3c(N4CCS(=O)(=O)CC4)cc(Cl)cc13)CCNC2=O [Example 17, 8-Chloro-6-(1,1-dioxo-1λ^6-thiomorpholin-4-yl)-10-methyl-3,4-dihydro-2H-pyrazino[1,2-a]indol-1-one] | 386 °C | 0.011 µM
21 | Cc1c2n(c3c(N4CCOCC4)cc(Cl)cc13)CCNC2=O [Example 18, 8-Chloro-10-methyl-6-morpholin-4-yl-3,4-dihydro-2H-pyrazino[1,2-a]indol-1-one] | 207 °C | 0.039 µM
22 | Cc1c2n(c3c(N4CCS(=O)(=O)CC4)cc(C#N)cc13)CCNC2=O [Example 19, 6-(1,1-Dioxo-1λ^6-thiomorpholin-4-yl)-10-methyl-1-oxo-1,2,3,4-tetrahydro-pyrazino[1,2-a]indole-8-carbonitrile] | 400 °C | 0.008 µM
23 | CC(C)Cc1cc(C#N)cc2cc3n(c12)CCNC3=O [Example 21, 6-Isobutyl-1-oxo-1,2,3,4-tetrahydro-pyrazino[1,2-a]indole-8-carbonitrile] | 260.5 °C | 0.14 µM
24 | CC(C)Cc1cc(F)cc2cc3n(c12)CCCNC3=O [Example 22, 9-Fluoro-7-isobutyl-2,3,4,5-tetrahydro-[1,4]diazepino[1,2-a]indol-1-one] | 157 °C | 0.11 µM
25 | CC(C)Cc1cc(F)cc2cc3n(c12)CCNC3=O [Example 23, 8-Fluoro-6-(2-methylpropyl)-3,4-dihydro-2H-pyrazino[1,2-a]indol-1-one] | 229 °C | 0.02 µM
26 | CC(C)Cc1cc(Cl)cc2cc3n(c12)CCCNC3=O [Example 25, 9-Chloro-7-(2-methylpropyl)-2,3,4,5-tetrahydro-[1,4]diazepino[1,2-a]indol-1-one] | 186 °C | 1.15 µM
27 | CC(C)Cc1cc(Cl)cc2cc3n(c12)CCNC3=O [Example 26, 8-Chloro-6-(2-methylpropyl)-3,4-dihydro-2H-pyrazino[1,2-a]indol-1-one] | 236 °C | 0.16 µM
28 | Cc1cc(Cl)cc2cc3n(c12)CCNC3=O [Example 27, 8-Chloro-6-methyl-3,4-dihydro-2H-pyrazino[1,2-a]indol-1-one] | 263 °C | 5.1 µM
29 | Cc1cc(Cl)cc2cc3n(c12)CCCNC3=O [Example 28, 9-Chloro-7-methyl-2,3,4,5-tetrahydro-[1,4]diazepino[1,2-a]indol-1-one] | 207 °C | 4.1 µM
30 | Cc1c2n(c3c(OC(F)(F)F)cc(C#N)cc13)CCNC2=O [Example 30, 10-Methyl-1-oxo-6-(trifluoromethoxy)-3,4-dihydro-2H-pyrazino[1,2-a]indole-8-carbonitrile] | 253 °C | 0.11 µM
31 | Cc1cc(CC(C)C)c2c(c1)cc1n2CCNC1=O [Example 31, 8-Methyl-6-(2-methylpropyl)-3,4-dihydro-2H-pyrazino[1,2-a]indol-1-one] | 182 °C | 1.16 µM
32 | Cc1cc(CC(C)C)c2c(c1)cc1n2CCCNC1=O [Example 32, 9-Methyl-7-(2-methylpropyl)-2,3,4,5-tetrahydro-[1,4]diazepino[1,2-a]indol-1-one] | 160 °C | 2.6 µM
33 | Cc1cc(C)c2c(c1)cc1n2CCNC1=O [Example 33, 6,8-Dimethyl-3,4-dihydro-2H-pyrazino[1,2-a]indol-1-one] | 253 °C | 4.9 µM
34 | Cc1c2n(c3c(CC(C)C)cc(C#N)cc13)CCCNC2=O [Example 34, 11-Methyl-7-(2-methylpropyl)-1-oxo-2,3,4,5-tetrahydro-[1,4]diazepino[1,2-a]indole-9-carbonitrile] | 235 °C | 0.13 µM

— patent US9586966B2, “Piperazino[1,2-a]indol-1-ones and [1,4]diazepino[1,2-a]indol-one” (Hoffmann-La Roche Inc., priority 2013, dated 2017)
